Results taken from patent US20230321286A1, “PROTOCOL FOR MINIMIZING TOXICITY OF COMBINATION DOSAGES AND IMAGING AGENT FOR VERIFICATION” (priority 2018, published 2023).

Assays:
[1] = Plasma concentration of PLX038, released SN-38 and SN-38G in rats bearing HT29 tumor xenografts (HPLC with fluorescence monitoring); format: in vivo; settings: rat with HT29 xenograft, ~200 mg/kg PLX038, conjugate
HT29 tumor xenografts = experiment: Levels of conjugate and released SN-38 in tumor versus plasma, HT29 xenograft-bearing rats
HT-29 xenograft = settings: irinotecan control
Procedure: Varying doses of the unlabeled PEG~(SN-38)4 conjugate are injected into animals.

MX-1 tumor xenografts = experiment: Efficacy of PLX038A (PEG-SN38) in mice bearing MX-1 tumor xenografts; settings: 137 µmole/kg irinotecan single dose
[2] = 14 days post-dosing, single 200 mg/kg PLX038
[3] = administered dose 200 mg/kg PLX038

With `CCc1c2c(nc3ccc(O)cc13)-c1cc3c(c(=O)n1C2)COC(=O)[C@]3(O)CC` [SN-38] the “half-life in plasma / systemic circulation” value [1] was 50 h, the accumulation in tumors (HT29 tumor xenografts; [2]) was “high accumulation” and the serum levels (HT29 tumor xenografts; [2]) was “undetectable”. For the same molecule, the “concentration of released SN-38 in the tumor” value (HT29 tumor xenografts; [3]) was “about 80 pm/g”, the “released SN-38 in the circulation” value (HT29 tumor xenografts; [3]) was “barely detectable” and the “conjugate / free drug in the plasma” value (HT29 tumor xenografts; lower dosages of PLX038) was “not detected in the plasma”. The “conjugate / free drug in the tumor” value (HT29 tumor xenografts; lower dosages of PLX038) was “significant concentrations”.

With `CCc1c2c(nc3ccc(OC(=O)N4CCC(N5CCCCC5)CC4)cc13)-c1cc3c(c(=O)n1C2)COC(=O)[C@]3(O)CC` [irinotecan] the “tumor inhibition relative to PLX038” value (HT-29 xenograft) was “near-equal tumor inhibition”, the “gastrointestinal (GI) toxicity” value (HT-29 xenograft; rat HT-29 xenograft model, PLX038 single 200 mg/kg) was “significant GI toxicity” and the “effect on tumor growth compared with vehicle” value (MX-1 tumor xenografts) was “only somewhat better than vehicle”.
